Results from patent publication US4605673A, “7H-dibenzo(a,c,)cyclohepten-5-one-(7) derivatives” (Warner-Lambert Company, priority 1982, dated 1986).
Counter-ions that a name gives are not always drawn. Like-named read-outs stand apart in the source and are kept apart here.

Tests used:
spontaneous motility = assay: (C) Locomotive activity (spontaneous motility), photoelectric systems; type: in vivo; conditions: mice; for Spontaneous motility (C), M = methaqualone: 40 m/g i.g.
Protocol: (C) The locomotive activity reflects the stimulating or depressive effects on the C.N. system. The spontaneous motility (impulses per minute) was measured in mice by means of photoelectric systems according to Irwin (Rev. Can. Biol. 20, 239 (1961). K in the margin=control, (twice), M=methaqualone (40 m/g i.g.) and S=substance.

[1] = tested on: Reserpine-induced hypothermia; assay: (A) Reserpine-induced hypothermia in mice (antidepressive action); type: in vivo; conditions: Mus musculus, read-out: Minimal dosage which leads to normalization of body temperature (A)
Text: The minimal dosage is given which leads to normalization of body temperature measured rectally.

[2] = tested on: hexobarbital sleeping period; assay: (D) Hexobarbital sleeping period (central sedating or stimulating effects); type: in vivo; conditions: mice, 82.5 mg/kg hexobarbital IV
Protocol: (D) The lengthening of the sleeping period is a common in vivo method for the determination of central sedating or stimulating effects. The test animals are mice subsequent to intravenous (IV) injection with 82.5 mg/kg hexobarbital. The influence on the sleeping period under the trial substance is given in % for control purposes.

Toxicity (LD50) = conditions: in vivo
mydriasis = assay: (E) Anticholinergic action measured as mydriasis; type: in vivo, mice; conditions: mice
Text: (§1) (E) Anticholinergic action measured as mydriasis (mice).

[3] = tested on: blood-pressure effect of noradrenaline and adrenaline; assay: (F) Autonomous test model after IV catecholamine administration (potentiation of blood-pressure effect of noradrenaline and adrenaline); type: in vivo, dogs; conditions: for Potentiation of catecholamine blood-pressure effect (F): dogs, result in words
Text: (F) Autonomous test model in dogs after IV catecholamine administration.

gastric secretion = assay: Shay preparation, gastric secretion; type: in vivo; conditions: po
[4] = (E) Anticholinergic action measured as mydriasis; type: in vivo, mice; conditions: mouse, in vivo, po
Text: as §1

[5] = 10 mg/kg s.c., control K 12 (4A), 13 (4B)

For Cc1ccccc1-n1c(C)nc2ccccc2c1=O [M], the “Spontaneous motility (C), M = methaqualone” value (spontaneous motility; Amitryptyline column, control K 20) was 2 impulses per minute, the “Spontaneous motility (C), M = methaqualone” value (spontaneous motility; Example 1 column, control K 20) was 2 impulses per minute and the “Spontaneous motility (C), M = methaqualone” value (spontaneous motility; Example 4A column, control K 16) was 3 impulses per minute. For the same compound, the “Spontaneous motility (C), M = methaqualone” value (spontaneous motility; Example 4B column, control K 20) was 2 impulses per minute and the “Spontaneous motility (C), M = methaqualone” value (spontaneous motility; Example 4C column, control K 19) was 6 impulses per minute.
For CCN(CC)CCOc1cc(=O)c2ccccc2c2ccccc12 [Example 1, 5-(2-Diethylaminoethoxy)-7H-dibenzo(a,c)cyclohepten-5-one(7).hydrochloride], the minimal effective dose ([1]; po, i.g.) was 20 mg/kg, the minimal effective dose ([1]; sc) was 5 mg/kg and the “Influence on the sleeping period (D)” value ([2]; 5 mg/kg s.c.) was -42%. For the same compound, the LD50 (Toxicity (LD50); po, i.g.) was 300 mg/kg, the “Spontaneous motility (C), S = substance” value (spontaneous motility; 5 mg/kg s.c., control K 17) was 20 impulses per minute and the “Anticholinergic action (mydriasis) (E)” value (mydriasis; up to 75 mg/kg s.c.) was “no effect”. The “Potentiation of catecholamine blood-pressure effect (F)” value (shortened to “Potentiation”) [3] was “no effect” and the inhibition at 25 mg/kg (gastric secretion; Shay preparation, 25 mg/kg i.g.) was 56%.
Work on CN(C)CCCc1cc(=O)c2ccccc2c2ccccc12 [Example 4A, 5-(3-Dimethylaminopropyl)-7H-dibenzo(a,c)cyclohepten-5-one(7)] yielded a minimal effective dose ([1]; po, i.g.) of 20 mg/kg, a minimal effective dose ([1]; sc) of 5 mg/kg and an LD50 (Toxicity (LD50); po, i.g.) of 200 mg/kg. For the same compound, the “Spontaneous motility (C), S = substance” value (spontaneous motility; [5]) was 12 impulses per minute, the “Anticholinergic action (mydriasis) (E)” value (mydriasis; up to 75 mg/kg s.c.) was “no effect” and the “Potentiation” value [3] was “no effect”.
With CCN(CC)CCCc1cc(=O)c2ccccc2c2ccccc12 [Example 4B, 5-(3-Diethylaminopropyl)-7H-dibenzo(a,c)cyclohepten-5-one(7).oxalate] the minimal effective dose ([1]; po, i.g.) was 30 mg/kg, the minimal effective dose ([1]; sc) was 10 mg/kg and the “Influence on the sleeping period (D)” value ([2]; 10 mg/kg s.c.) was “+11%”. For the same compound, the LD50 (Toxicity (LD50); po, i.g.) was 200 mg/kg, the “Spontaneous motility (C), S = substance” value (spontaneous motility; [5]) was 21 impulses per minute and the “Anticholinergic action (mydriasis) (E)” value (mydriasis; up to 75 mg/kg s.c.) was “no effect”. The “Potentiation” value [3] was “no effect”.
With CN/C(=N/CCSCc1nc[nH]c1C)NC#N [cimetidine, reference compound] the inhibition at 80 mg/kg (gastric secretion; read-out: Inhibition of gastric secretion) was 45%.
In the case of CN(C)CCC=C1c2ccccc2CCc2ccccc21 [Amitryptyline, reference compound], the minimal effective dose ([1]; sc) is reported as 5 mg/kg, the “Influence on the sleeping period (D)” value ([2]; 5 mg/kg s.c.) is reported as “+103%” and the LD50 (Toxicity (LD50); po, i.g.) is reported as 200 mg/kg. For the same compound, the LD50 (Toxicity (LD50); sc) was 100 mg/kg, the “Spontaneous motility (C), S = substance” value (spontaneous motility; 5 mg/kg s.c., control K 17) was 4 impulses per minute and the ED50 [4] was 23 mg/kg. For the same compound, the ED50 ([3]; Canis lupus familiaris, iv, read-out: Potentiation of catecholamine blood-pressure effect ED50 (F)) was 1 mg/kg.
For CNCCCc1cc(=O)c2ccccc2c2ccccc12 [Example 4C, 5-(3-methylaminopropyl)-7H-dibenzo(a,c)cyclohepten-5-one(7).oxalate], the minimal effective dose ([1]; po, i.g.) was 75 mg/kg, the LD50 (Toxicity (LD50); po, i.g.) was 800 mg/kg and the “Spontaneous motility (C), S = substance” value (spontaneous motility; 150 mg/kg i.g., control K 15) was 19 impulses per minute. For the same compound, the “Anticholinergic action (mydriasis) (E)” value (mydriasis; up to 200 mg/kg i.g.) was “no effect” and the “Potentiation” value [3] was “no effect”.
